The subject of assay [1] is C57BLKS/J db/db mice. Nature of the assay: Body weight, adipose tissue weight and food intake in the 4-week db/db mouse study. The class given is in vivo. The settings on record: for Total adipose tissue weight / Body weight: 4 weeks feed-ad-mix, 1% EGCG and/or 0.038% rosiglitazone in diet, group means; for Total adipose tissue weight: by NMR; for Body weight: * vs control, # vs rosiglitazone (P<0.05). The method, then:
(§1) This model of late type 2 diabetes with severe hyperglycemia and obesity is widely used to determine the efficacy of anti-diabetic and anti-obesity compounds.
(§2) Male db/db mice were obtained from Jackson Laboratory (Bar Harbor, Me., USA). Adult mice aged 8 weeks were used in the experiment. Mice were housed individually in plastic cages with bedding and allowed free access to standard rodent food and tap water. The animal rooms were controlled for temperature (24° C.), humidity (55%), and light (12-h light-dark cycle). The animals were randomized into four groups. […] Body weight and food intake were determined over the course of the study. Total adipose tissue weight was determined by NMR. After four weeks of treatment an oral glucose tolerance test was carried out after an overnight fasting period. The blood glucose levels were measured before (fasted state glucose levels) application of an oral glucose load (1 g/kg body weight) and after 15, 30, 45, 60, 90, 120, 150 and 180 minutes. Area under the curve (AUC) was calculated from the resulting blood glucose curves and served as an indicator of glucose tolerance. At the end of the study, fed state levels of glucose, triglycerides and free fatty acids were determined in plasma. All data are expressed as means for animals in each group.

Assay [2] relates to C57BLKS/J db/db mice. Nature of the assay: Oral glucose tolerance test and fasted state glucose in db/db mice after 4 weeks. The class given is in vivo. The conditions noted are these: for Fasted state glucose: blood, overnight fasting, before glucose load. Here is the method: as §1, §2
The subject of assay [3] is C57BLKS/J db/db mice. The assay is described as follows: Fed state plasma glucose, triglycerides and free fatty acids in db/db mice at end of study. The settings on record: 4 weeks. It is filed as in vivo. The method, then: as §1, §2
Another assay deals with C3H10T1/2. The assay is described as follows: Adipocyte differentiation of C3H10T1/2 cells, oil red O staining. The class given is cell-based. The settings on record: for Optical Density: extracted oil red O stain after 11-day treatment, insulin 100 nM.
Where [4] appears, read: 1% EGCG and/or 0.038% rosiglitazone in diet.
Where [5] appears, read: fed state plasma, 1% EGCG and/or 0.038% rosiglitazone in diet.

“Also recorded” adds a separate entry of the source. Marks after values point to notes of the source that are not given here.

Source text for C3H10T1/2: After the 11-day treatment, the cells were stained with oil red O. This was followed by extraction of the stain for concentration determination.

As for `CN(CCOc1ccc(CC2SC(=O)NC2=O)cc1)c1ccccn1` (stereo not shown) [Rosiglitazone, rosiglitazone, reference compound], in the assay on C57BLKS/J db/db mice [1], the “Total adipose tissue weight” value is 29.0* g and the Body weight is 50.0* g. Further, the Fasted state glucose in the assay with C57BLKS/J db/db mice [2] (setting [4]) is 98.0* mg/dl. Moreover, in the assay with C57BLKS/J db/db mice [3] (setting [5]), the Free fatty acids is given as 25.2* mmol/l, the Glucose was 22.1* mmol/l and the Triglycerides was 1.01* mmol/l.
In the case of “Insulin: insulin, 100 nM, used alone as comparison in the adipocyte differentiation test [reference compound]”, the “Optical Density” value is 0.21 ± 0.02 with C3H10T1/2 (Table 1, rosiglitazone 1 × 10^−5 M, pioglitazone 2.5 × 10^−5 M, EGCG 5 × 10^−5 M) and 0.14 ± 0.01 in the assay with C3H10T1/2 (Table 2, ligustilide 50 × 10^−5 M, no EGCG).
(−)-epigallocatechin gallate [EGCG]: in the assay with C3H10T1/2 (C3H10T1/2 cells, 11-day treatment, oil Red O staining), the “Adipocyte differentiation (result in words)” value is listed as “blocked TZD-induced adipocyte differentiation; also recorded: blocked ligustilide-induced adipocyte differentiation”. Further, in the assay with C57BLKS/J db/db mice [1], the “Total adipose tissue weight” value is given as 20.9*# g and the Body weight was 38.8*# g. Moreover, in the assay with C57BLKS/J db/db mice [1] (4 weeks, compared to control mice), the “Body weight and adipose tissue weight (result in words)” value is “moderately decreased”. In addition, in the assay with C57BLKS/J db/db mice [2] (setting [4]), the Fasted state glucose is 132.1* mg/dl. In addition, the AUC with C57BLKS/J db/db mice [2] (1% EGCG and/or 0.038% rosiglitazone in diet, oral glucose load 1 g/kg, blood glucose curve 0-180 minutes) is 38353.5*. The “Glucose tolerance (result in words)” value in the assay on C57BLKS/J db/db mice [2] (AUC of oral glucose tolerance test) was “significantly improved”. Also, the “Fasted state glucose levels (result in words)” value in the assay with C57BLKS/J db/db mice [2] (compared to control mice) is “significantly reduced”. Moreover, in the assay on C57BLKS/J db/db mice [3], the “Fed state plasma levels of glucose, triglycerides, and free fatty acids (result in words)” value is given as “significantly reduced”. Besides, in the assay on C57BLKS/J db/db mice [3] (setting [5]), the Glucose is 33.5*# mmol/l and the Triglycerides was 1.47* mmol/l.

Values taken from patent publication US7691420B2, “Compositions for the treatment and prevention of diabetes mellitus” (priority 2003, dated 2010).
